{"source": "ChEMBL document CHEMBL1142222", "about": "“A-803467, a potent and selective Nav1.8 sodium channel blocker, attenuates neuropathic and inflammatory pain in the rat” (Proc Natl Acad Sci U S A, 2007)", "key": {"[1]": {"molecular_target": "Sodium channel protein type 10 subunit alpha (Rattus norvegicus, UniProt Q62968)", "sequence (Q62968 whole entry)": "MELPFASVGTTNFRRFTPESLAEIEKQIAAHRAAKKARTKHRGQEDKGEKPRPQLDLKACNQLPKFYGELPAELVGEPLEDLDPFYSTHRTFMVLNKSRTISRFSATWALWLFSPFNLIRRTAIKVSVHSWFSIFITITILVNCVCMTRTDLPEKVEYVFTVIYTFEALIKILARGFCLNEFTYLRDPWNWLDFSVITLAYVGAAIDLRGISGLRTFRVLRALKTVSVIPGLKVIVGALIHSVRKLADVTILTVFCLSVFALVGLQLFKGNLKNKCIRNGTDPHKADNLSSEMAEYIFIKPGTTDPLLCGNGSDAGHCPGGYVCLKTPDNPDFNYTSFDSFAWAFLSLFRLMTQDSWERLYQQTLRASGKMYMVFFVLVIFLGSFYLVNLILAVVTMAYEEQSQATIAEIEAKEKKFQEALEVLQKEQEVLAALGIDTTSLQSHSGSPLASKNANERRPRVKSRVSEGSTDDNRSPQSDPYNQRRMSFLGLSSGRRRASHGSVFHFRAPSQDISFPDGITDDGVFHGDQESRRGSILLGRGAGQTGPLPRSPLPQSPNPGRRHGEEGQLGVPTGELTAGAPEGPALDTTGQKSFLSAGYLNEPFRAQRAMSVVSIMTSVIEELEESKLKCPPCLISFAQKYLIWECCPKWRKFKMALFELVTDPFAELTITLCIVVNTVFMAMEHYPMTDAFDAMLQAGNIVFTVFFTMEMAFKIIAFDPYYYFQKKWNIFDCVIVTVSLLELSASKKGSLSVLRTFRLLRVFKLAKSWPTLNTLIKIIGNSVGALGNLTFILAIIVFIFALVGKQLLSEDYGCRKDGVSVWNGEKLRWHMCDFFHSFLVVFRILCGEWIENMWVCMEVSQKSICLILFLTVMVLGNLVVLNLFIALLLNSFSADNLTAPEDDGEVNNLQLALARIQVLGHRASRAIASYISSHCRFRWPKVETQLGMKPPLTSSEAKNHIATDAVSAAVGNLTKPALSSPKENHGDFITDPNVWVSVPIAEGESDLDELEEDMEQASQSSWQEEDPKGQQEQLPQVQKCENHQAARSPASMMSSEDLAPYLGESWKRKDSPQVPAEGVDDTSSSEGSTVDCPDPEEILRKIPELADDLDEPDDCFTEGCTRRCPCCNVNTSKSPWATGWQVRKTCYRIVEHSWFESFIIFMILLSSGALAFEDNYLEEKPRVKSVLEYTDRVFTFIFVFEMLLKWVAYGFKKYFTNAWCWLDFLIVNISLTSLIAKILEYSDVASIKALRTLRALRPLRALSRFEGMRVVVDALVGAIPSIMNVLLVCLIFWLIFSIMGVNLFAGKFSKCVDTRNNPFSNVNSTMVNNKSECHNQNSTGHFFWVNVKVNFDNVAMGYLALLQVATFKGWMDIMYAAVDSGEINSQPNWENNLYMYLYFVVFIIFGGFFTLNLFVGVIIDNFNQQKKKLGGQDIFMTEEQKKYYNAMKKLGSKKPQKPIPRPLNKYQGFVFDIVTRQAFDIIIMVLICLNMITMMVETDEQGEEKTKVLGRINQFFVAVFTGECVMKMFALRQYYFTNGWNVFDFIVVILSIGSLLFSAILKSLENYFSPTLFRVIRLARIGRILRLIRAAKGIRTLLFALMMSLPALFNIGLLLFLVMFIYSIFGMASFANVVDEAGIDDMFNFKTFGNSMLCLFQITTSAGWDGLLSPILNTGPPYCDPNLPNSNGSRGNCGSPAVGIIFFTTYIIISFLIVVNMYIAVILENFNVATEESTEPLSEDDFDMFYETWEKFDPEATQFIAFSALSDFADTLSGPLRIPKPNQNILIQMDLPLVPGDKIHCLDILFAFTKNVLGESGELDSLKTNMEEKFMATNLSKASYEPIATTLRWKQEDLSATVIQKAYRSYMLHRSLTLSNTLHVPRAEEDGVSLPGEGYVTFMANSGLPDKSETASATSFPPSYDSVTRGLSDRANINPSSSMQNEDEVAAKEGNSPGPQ", "experiment": "Inhibition of Nav1.8 channel in rat dorsal root ganglion neurons assessed as blockade of TTX-R current by patch clamp method", "assay_type": "tissue-based"}, "Rattus norvegicus": {"test_system": "Rattus norvegicus", "experiment": "Analgesic activity in ip dosed rat chronic constriction injury model of mechanical allodynia", "assay_type": "functional"}}}
{"molecule": "Cc1cccc(C)c1OCC(C)N", "note": "(stereo not drawn) [MEXILETINE]", "values": [{"measurement": "IC50", "setting": "[1]", "result": "> 30", "unit": "µM"}]}
{"molecule": "Nc1nnc(-c2cccc(Cl)c2Cl)c(N)n1", "note": "[LAMOTRIGINE]", "values": [{"measurement": "ED50", "setting": "Rattus norvegicus", "result": 20, "unit": "mg/kg"}]}
{"molecule": "NCC1(CC(=O)O)CCCCC1", "note": "[GABAPENTIN]", "values": [{"measurement": "ED50", "setting": "Rattus norvegicus", "result": 40, "unit": "mg/kg"}]}
